Test results published in EPA's ToxRefDB 2.

Columns and labels:
dog = conditions: Chronic toxicity, beagle, Oral, Feed, dose end: 52 week, group: systemic
mouse [1] = conditions: Subchronic oral toxicity in rodents, cd1, Feed, dose end: 98 day, group: systemic, systemic / organ weight / liver / absolute + systemic / organ weight / liver / relative to body weight + systemic / pathology microscopic / …
rabbit = conditions: Prenatal developmental toxicity study, new zealand white, Oral, Gavage/Intubation, dose end: 18 GD
rat [2] = conditions: Combined chronic toxicity/carcinogenicity, wistar, Oral, Feed, dose end: 24 month, group: systemic
mouse [3] = conditions: Carcinogenicity, other, Oral, Feed, dose end: 24 month, group: systemic
rat [4] = conditions: Subchronic oral toxicity in rodents, wistar, Feed, dose end: 98 day, group: systemic
rat [5] = conditions: Prenatal developmental toxicity study, sprague dawley, Oral, Gavage/Intubation, dose end: 15 GD
[6] = systemic / clinical chemistry / alanine aminotransferase (alt/sgpt) / alanine aminotransferase (alt/sgpt) + systemic / clinical chemistry / …
[7] = systemic / pathology microscopic / spleen / hemosiderosis + systemic / pathology microscopic / liver / cytoplasmic alteration
[8] = group: developmental, developmental / developmental malformation / bone / incomplete ossification
[9] = group: maternal, systemic / in life observation / body weight / body weight gain + systemic / in life observation / food consumption / food consumption
[10] = systemic / clinical chemistry / creatinine / creatinine
[11] = systemic / clinical chemistry / albumin-globulin ratio / albumin-globulin ratio + systemic / clinical chemistry / glucose / glucose
[12] = systemic / pathology microscopic / liver / fatty change + systemic / pathology microscopic / liver / granuloma + systemic / pathology …
[13] = systemic / in life observation / body weight / body weight + systemic / in life observation / body weight / body weight gain + systemic / in…
[14] = group: developmental, developmental / developmental malformation / bone / absent + developmental / developmental malformation / bone / delayed ossification + …
[15] = group: maternal, systemic / in life observation / clinical signs / abnormal gait + systemic / in life observation / body weight / body weight + systemic / in…

`CCC/C(=N\OCC)C1=C(O)CC(CC(C)SCC)CC1=O` (stereo unspecified) [Sethoxydim] gave an LOAEL (dog; [6]) of 110 mg/kg/day, an NOAEL (dog; [6]) of 17.5 mg/kg/day and an LEL (dog; [7]) of 8.7 mg/kg/day. For the same molecule, the NEL (dog; [7]) was less than 8.7 mg/kg/day, the LEL (mouse [1]) was 137 mg/kg/day and the LOAEL (mouse [1]) was 137 mg/kg/day. For the same molecule, the NEL (mouse [1]) was 45.6 mg/kg/day, the NOAEL (mouse [1]) was 45.6 mg/kg/day and the LEL (rabbit; [8]) was 400 mg/kg/day. It also gave an LOAEL (rabbit; [8]) of 400 mg/kg/day, an NEL (rabbit; [8]) of 160 mg/kg/day and an NOAEL (rabbit; [8]) of 160 mg/kg/day. The LEL (rabbit; [9]) was 400 mg/kg/day, the LOAEL (rabbit; [9]) was 400 mg/kg/day and the NEL (rabbit; [9]) was 160 mg/kg/day. For the same molecule, the NOAEL (rabbit; [9]) was 160 mg/kg/day, the LEL (rat [2]; [10]) was 12 mg/kg/day and the NEL (rat [2]; [10]) was less than 12 mg/kg/day. The LOAEL (rat [2]; systemic / pathology microscopic / liver / hypertrophy) was 48 mg/kg/day, the NOAEL (rat [2]; systemic / pathology microscopic / liver / hypertrophy + systemic / clinical chemistry / alkaline phosphatase (alp/alk) / alkaline …) was 12 mg/kg/day and the LEL (mouse [3]; [11]) was 4.85 mg/kg/day. The NEL (mouse [3]; [11]) was less than 4.85 mg/kg/day, the LOAEL (mouse [3]; [12]) was 41.2 mg/kg/day and the NOAEL (mouse [3]; [12]) was 13.8 mg/kg/day. It also gave an LOAEL (rat [4]; [13]) of 196 mg/kg/day, an NEL (rat [4]; [13]) of 20.1 mg/kg/day and an NOAEL (rat [4]; [13]) of 60.4 mg/kg/day. For the same molecule, the LEL (rat [4]; systemic / organ weight / liver / relative to body weight + systemic / pathology microscopic / liver / hypertrophy) was 60.4 mg/kg/day, the LEL (rat [5]; group: developmental, developmental / developmental malformation / bone / absent) was 180 mg/kg/day and the LOAEL (rat [5]; [14]) was 650 mg/kg/day. The NEL (rat [5]; [14]) was 50 mg/kg/day, the NOAEL (rat [5]; [14]) was 180 mg/kg/day and the LOAEL (rat [5]; group: maternal, systemic / in life observation / clinical signs / abnormal gait) was 180 mg/kg/day. For the same molecule, the NEL (rat [5]; [15]) was 180 mg/kg/day, the NOAEL (rat [5]; [15]) was 50 mg/kg/day and the LEL (rat [5]; group: maternal, systemic / in life observation / clinical signs / abnormal gait + systemic / in life observation / clinical signs / anogenital staining + …) was 650 mg/kg/day.
